According to patent US10781203B2, “Nontoxic compounds for the treatment and prevention of herpesvirus infections” (The Penn State Research Foundation, priority 2016, dated 2020):

Tests used:
[1] = tested on: HCMV; assay: HCMV single-step growth curve / virus titer analysis (MOI=3); format: cell-based, Human cytomegalovirus (HCMV); conditions: Human betaherpesvirus 5; for EC50: MOI=3, harvested at 96 hpi (FIG. 9)
Description: Infections were done at an MOI of 0.05 for multi-step growth curves and MOI 3 for single-step growth curves. Infections were done on NHDFs unless otherwise noted. Virus was incubated with cells for 2 hours before addition of fresh media. For growth curve analyses, virus was harvested at the indicated time-points for each experiment by scraping the cells into the medium, sonicating 10 times with 1 second pulses, vortexing for 15 seconds, and centrifuging at 13,000 rpm for 10 min. Supernatants were collected, aliquoted and flash-frozen in liquid nitrogen before storage at −80° C.
(§1) For MCMV growth curve analysis, samples were titrated on NIH 3T3 cells and titers were calculated using the 50% tissue culture infective dose method. Both HCMV virus stocks and samples for growth curves were titrated by serial dilutions on MRC5 cells and quantified by the immunological detection of immediate-early proteins as previously described (Britt W J. Human cytomegalovirus: propagation, quantification, and storage. Curr Protoc Microbiol. 2010; Chapter 14: Unit 14E.3). The numbers of stained nuclei were acquired on a Nikon Eclipse Ti Inverted microscope and fluorescent nuclei were quantified using the NIS Elements Software. Images of viral foci from infection of ARPE19 cells were also acquired on Eclipse Ti Inverted microscope. The number and size of foci were quantified using NIS Elements software.
^1H NMR spectra were recorded on a 500 MHz Bruker spectrometer (Billerica, Mass.) using tetramethylsilane (TMS) as the internal reference. The following abbreviations were used to designate chemical shift multiplicities: s=singlet, d=doublet, dd=double doublet, t=triplet, dt=doublet of triplet, m=multiplet. Mass Spec analysis was performed on 4000 Q trap hybrid triple quadrupole/linear ion trap instrument (Applied Biosystems/MDS Sciex) at the proteomic facility at Penn State Hershey Cancer Institute, Hershey, Pa. Thin-layer chromatography (TLC) was on aluminum-supported, precoated silica gel plates (EM Industries, Gibbstown, N.J.). 5-(2-methyl-3-thiazol-4-yl)-2-thiophencarboxaldehyde was purchased from MAYBRIDGE-Thermo Fisher (Cornwall, UK). All other starting materials were obtained from Aldrich Chemical Co. (Milwaukee, Wis.) and used without further purification. Retro94 was added to cells at 2 hpi at a concentration of 10 μM, unless otherwise indicated.

[2] = tested on: MCMV; assay: Viral titers of MCMV-infected fibroblasts; format: cell-based, mouse; conditions: 6 dpi (FIG. 12A)
Description: FIG. 7A is a graph showing viral titers at 15 dpi of fibroblasts infected with various strains of HCMV (MOI=0.05) and treated with DMSO or Retro94 at 2 hpi. Media was changed and fresh Retro94 was added at 6 dpi. Bright field images representing CPE of above infections shown at right. FIG. 7B show HCMV-infected ARPE-19 cells (TB40, MOI=3) at 21 dpi treated with DMSO or Retro94 ([…]). Infected cells detected by monitoring mCherry (red) expressed by TB40 virus. Scale bars: 1 mm. The table below images show number of foci detected, average area and standard error of the mean. P<0.00001. […]
as §1, with “Images of viral foci from infection of ARPE19 cells were also acquired on Eclipse Ti Inverted microscope.” left out

[3] = tested on: EBV; assay: EC50 against other herpesviruses: EBV; format: cell-based; conditions: below the lowest concentration tested (FIG. 10B)
Description: (§2) FIGS. 10A-10B show data to provide support for Retro94 and derivatives being effective against other herpesviruses. […] Samples were harvested at 24 hpi. Representative data shown are from independent replicates. FIG. 10B provides a table showing low nanomolar EC50 values of Retro94F against other herpesviruses.

[4] = tested on: KSHV; assay: EC50 against other herpesviruses: KSHV; format: cell-based; conditions: below the lowest concentration tested (FIG. 10B)
Description: as §2

[5] = tested on: range of viruses from diverse families; assay: EC50 against non-herpesviruses; format: cell-based; conditions: FIG. 11A
Description: (§3) FIG. 11A provides a table showing EC50 values of Retro94F against a range of viruses from diverse families. […] Samples were harvested at 24, 48 and 72 hpi. Data shown is from one independent replicates.

[6] = tested on: Zika virus; assay: Growth curve analysis of Zika virus; format: cell-based; conditions: MOI=5; 24, 48 and 72 hpi
Description: as §3

[7] = Tolerability in mice (adverse effects, creatinine, BUN); format: in vivo, C57BL/6 mice
Description: FIGS. 13A-13B provides data to support Retro94F showing no overt toxicity in mice. FIGS. 13A and 13B, Mice were treated with […] Retro-2.1 or vehicle control one hour prior to infection with 2×10^4 PFU MuPyV, then daily until day 4 p.i.
While we obtained good results in tissue culture, developing animal models to test the inhibitors was undertaken to allow for studies to test both the properties of the compounds in a host as well as their efficacy against viruses. […] Thus, at least two mouse infection models in which to show efficacy of the compounds against infection in a host organism is provided. Administration of Retro94F to mice to monitor for potential adverse effects of the compound was undertaken. These initial studies have shown that Retro94F is well tolerated by the mice. For these studies, C57BL/6 mice were injected intraperitoneally once daily with 250 μg of Retro94F or vehicle control in 250 μl of 0.9% saline. […] Thus, the inhibitors appear to be well tolerated by mice.

[8] = tested on: mouse polyomavirus; assay: Immune response of mice challenged with mouse polyomavirus; format: in vivo, B6 mice
Description: (A-E) B6 mice were infected via hind footpads with 2×10^5 PFU of MuPyV. FIGS. 14A and 14B show the results of the percent of immune cell populations in the spleen (FIG. 14A) and kidney (FIG. 14B) analyzed at day 8 post infection between vehicle- or Retro94F-treated mice. […] FIGS. 14D-14E show the phenotype of MuPyV-specific CD8 T cells, analyzed at day 8 or day 30 post infection. KLRG1hi CD127lo (FIG. 14D) cells are short-lived effector cells, while KLRG1lo CD127hi (FIG. 14E) cells are memory-precursor effector cells.
Thus, the inhibitors appear to be well tolerated by mice.

[9] = tested on: cells; assay: Cell viability after extended treatment (trypan blue, bright field); format: cell-based; conditions: after 96 hours of treatment
Description: FIG. 3A is a growth curve analysis of HCMV (MOI=3) in untreated (WT), vehicle treated (DMSO) or Retro94-treated cells. Samples were harvested at 24, 48, 72, 96, 120 and 144 hpi. […] Nuclei labeled with DAPI (blue). Scale bars: 10 μm. FIG. 3C is a growth curve analysis of HCMV (MOI=0.05) in DMSO control (DMSO) or Retro94-treated cells. Samples were harvested at 3, 6, 9, 12 and 15 dpi. Asterisks indicate change of media with fresh Retro94. […] Bright field images of cell monolayers at 4 days post treatment are shown below graph. Brefeldin A was included as a positive control for cell death. Values in FIGS. 3A and 3C are from one representative experiment.
Normal human dermal fibroblasts, HDFs (Cell Applications Inc. 106-05N), and normal human lung fibroblasts, MRC-5 cells (ATCC CCL-171) were maintained in Dulbecco's modified Eagle's medium (DMEM) (Lonza). Human retinal pigmented epithelial cells (ARPE-19), maintained in DMEM/Ham's F12 (1:1 mix) (Lonza), human embryonic lung fibroblasts (HEL) and mouse embryonic fibroblasts (NIH 3T3), maintained in DMEM (Lonza) were obtained (Spector D J, Yetming K. Virology. 2010; 407(2):171-7; Spector D J. Virology. 2015, 476:345-54). All media was supplemented with 10% fetal bovine serum, 100 U/ml penicillin and 100 µg/ml streptomycin, and 2 mM GlutaMAX (Gibco). Cells were maintained at 37° C. with 5% CO2. […]

Compound	EC50 [1] [nM]	IC50 ([1]; added at 2 hpi, MOI 3, 96 hpi, read-out: IC50 (HCMV titers)) [nM]	inhibition of replication of the mouse equivalent of CMV in culture [2] [%]	EC50 (EBV) [3]	EC50 (KSHV) [4]	EC50 against other viruses [5]	inhibition of Zika virus infection [6]	adverse effects ([7]; 250 μg intraperitoneally once daily for 14 straight days)	kidney function (creatinine and BUN levels) ([7]; treated mice, day 4 and day 30 p.i.)	signs of distress ([8]; challenge with mouse polyomavirus after treatment)	CD8 T cell response to the virus ([8]; day 8 or day 30 post infection)	levels of immune cells (spleen, kidney) ([8]; day 8 post infection)	cells remaining in the monolayer [9]
Cc1nc(-c2ccc(C3N(C)c4ccc(F)cc4C(=O)N3c3ccccc3)s2)cs1 (centres unmarked) [Retro94F, 6-Fluoro-1-methyl-2-(5-(2-methylthiazol-4-yl)thiophen-2-yl)-3-phenyl-2,3-dihydroquinazolin-4(1H)-one]	~20	~15	99	low naonmolar range	low naonmolar range	high nanomolar to low micromolar range	approximately 90%	no apparent adverse effects	did not adversely affect kidney function	no signs of distress	did not alter	equivalent levels of immune cells as control treatment	–
Cc1nc(-c2ccc(C3N(C)c4ccc([N+](=O)[O-])cc4C(=O)N3c3ccccc3)s2)cs1 (centres unmarked) [DABL-NM, 6-Nitro-1-methyl-2-(5-(2-methylthiazol-4-yl)thiophen-2-yl)-3-phenyl-2,3-dihydroquinazolin-4(1H)-one]	~20	–	–	–	–	–	–	–	–	–	–	–	–
C[C@H]1CCC/C=C/[C@@H]2C[C@H](O)C[C@H]2[C@H](O)/C=C/C(=O)O1 [Brefeldin A, reference compound]	–	–	–	–	–	–	–	–	–	–	–	–	very few cells in the monolayer remained
